Each structure is given as a SMILES string. Where “and” joins values, the source holds several entries; their conditions need not be identical. Equal entries are not always repeated.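 96-well plates; 48 h exposure; 5 concentrations. Endpoints by linear interpolation between flanking doses. Not reached: highest tested concentration assigned. GI50 marks 50% less growth. TGI is the concentration that stops growth completely.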 *1 amine or outer side, *2 acyl side, *3 side chain or, on linkers, in order; H or OH if unused. Where a SMILES comes first, the peptide text is derived from it. Bridges are numbered along the chain shown (N, C = ends). [ ]: non-standard residue; d: D form. The star is where a group is joined. ξ: configuration not given here. Phe(3,5-F2) = N[C@@H](Cc1cc(F)cc(F)c1)C(=O)O; ξThr(3S) = C[C@H](O[*:3])C(N[*:1])C(=O)[*:2]; Pro(4R-Me) = C[C@H]1CN[C@H](C(=O)O)C1; Pip = O=C(O)[C@@H]1CCCCN1; X1 = Cc1ccc(N*)c(F)c1; CO = O=C([*:1])[*:2] Where only a bound is given, the exact number is not on record here.

The assay relates to MDA-MB-468 breast. The assay is described as follows: NCI-60 cell line screen, 48 h.
With `Cc1cc(NC(=O)NCCCOc2ccc(N3C(N)=NC(N)=NC3(C)C)cc2Cl)ccc1S(=O)(=O)F`, the GI50 is 0.638 µM and the TGI was 19.7 µM. As to `Nc1nc(N)c2cc(S(=O)(=O)c3cccc(C(F)(F)F)c3)ccc2n1`, the GI50 was 2.34 µM and the TGI was above 100 µM.

With `COc1cccc2c1C(=O)c1c(O)c3c(c(O)c1C2=O)C[C@@](O)(C(=O)CO)C[C@@H]3OC1CC(N2CCOCC2)C(O)C(C)O1` (some centres not stated), the GI50 was 0.0369 µM and the TGI is 0.216 µM.

Turning to `C=C(C)[C@@H]1CC[C@]2(C(=O)OC)CC[C@]3(C)[C@H](CC[C@@H]4[C@@](C)(CCc5nn[nH]n5)[C@H](C(=C)C)CC[C@]43C)[C@@H]12`, the GI50 is 13.8 µM and the TGI is 36.4 µM. For `Cc1ccc(-c2nnc(SCc3ccc(O)c4ncccc34)o2)cc1`, the GI50 was 1.88 µM and the TGI is above 100 µM.

With `O=C(O)CN(CCN(CC(=O)O)CC(=O)O)CCN(CC(=O)O)CC(=O)O`, the GI50 is 4.03 µM and the TGI was 16.4 µM. For the compound `Cc1ccc(/C=C/C(=O)c2ccc(F)cc2)s1`, the GI50 was 2.97 µM and the TGI was 16.4 µM. For `CCOc1ccc2nc3cc(N)ccc3c(N)c2c1`, the GI50 was 0.268 µM and 0.135 µM; the TGI was 0.972 µM and 0.493 µM. As to `CC(=O)Nc1ccc(CC[C@H]2CCC/C=C/[C@@H]3C[C@H](O)C[C@H]3[C@H](O)/C=C/C(=O)O2)cc1`, the GI50 was 0.0213 µM and the TGI amounted to 0.0503 µM.

Regarding `COc1ccc(C2c3cc4c(cc3OC(N3CCOCC3)C2C)OCO4)cc1OC` (configuration not stated), the GI50 is 7.56 µM and the TGI is above 100 µM. Consider `COc1cc(-c2csc(NC(=O)Nc3ccc(Cl)cc3)n2)cc(OC)c1OC`, for which the GI50 is 2.96 µM and the TGI came to 9.35 µM. As for `N#CSc1c[nH]c2ccc(/C=C/C(=O)/C=C(O)/C=C/c3ccc4[nH]cc(SC#N)c4c3)cc12`, the GI50 is 2.06 µM and the TGI was found to be 6.67 µM. The like results for `C#C[C@]1(O)CC[C@H]2[C@@H]3CC=C4c5sc(Nc6cc(C)cc(C)c6)nc5CC[C@]4(C)[C@H]3CC[C@@]21C` were, in that order, 2.54 µM and 8.69 µM.

For the compound `c1ccc2[nH]c(-c3ccc(Nc4nc(N5CCCC5)nc5[nH]ncc45)cc3)nc2c1`, the GI50 was 0.277 µM and the TGI is 1.21 µM. The like results for `Clc1cccc(-c2cc(-c3ccc4c(c3)OCCO4)[nH]n2)c1` were, in that order, 10.9 µM and 57.8 µM.

As for `CC(C)Cn1cnc2c(N)nc3ccccc3c21`, the GI50 was 12.4 µM and the TGI was above 62.1 µM.

With `CCCCCCCCCCCC1=NC(C)(C)CN1C(C)C`, the GI50 is 1.66 µM and the TGI was determined as 3.8 µM. `O=C(Nc1ccccc1/C=C/c1n[nH]c2ccccc12)c1ccccc1`: the GI50 is 6.35 µM and the TGI stood at 20.4 µM.

For the compound `CCCN1CCC(Oc2cc(Nc3nc(Nc4cccc(F)c4C(N)=O)c4cc[nH]c4n3)c(OC)cc2Cl)CC1`, the GI50 is 0.537 µM and the TGI is 1.35 µM. Take `CCCCCOC(=O)c1c(C)[nH]c(/C=C2\N=C(c3ccc[nH]3)C=C2OC)c1C`: the GI50 was 0.0546 µM and the TGI worked out at 1.32 µM. The like results for `CN(C)CCN1C(=O)c2cccc3cc(N)cc(c23)C1=O` were, in that order, 2.95 µM and 11.9 µM. The like results for `COc1ccc(-c2nc(-c3nc4cc(Cl)c(Cl)cc4[nH]3)c3ccccn23)cc1` were, in that order, 5.04 µM and above 100 µM. The like results for `Cc1[nH]nc2ncc(C#Cc3cncc(C(=O)Nc4ccc(CN5CCN(C)CC5)c(C(F)(F)F)c4)c3)cc12` were, in that order, 0.141 µM and 0.911 µM. As for `CC[C@@H]1C(=O)N(C)c2cnc(Nc3ccc(C(=O)NC4CCC(N5CCN(CC6CC6)CC5)CC4)cc3OC)nc2N1C(C)C` (some centres not stated), the GI50 was 0.00331 µM and < 0.01 µM; the TGI is 0.121 µM.

`C=CC(=O)N1CCN([C@@H](CC2CC2)c2ccc([C@H](C)Nc3ncc4c(n3)N(CC)C(=O)OC4)cc2)CC1`: the GI50 was 3.3 µM and the TGI came to 13.8 µM. The like results for `CCCCCCCCCCCC(c1ccccc1)[N+](C)(C)C` (configuration not stated) were, in that order, 0.257 µM and 1.35 µM. The like results for `Clc1ccc2c(NCCCCNc3nc(N4CCOCC4)nc4ccccc34)ccnc2c1` were, in that order, 2.82 µM and 7.97 µM.

Regarding `Clc1ccc2c(NC3CCC(NC4CCCCC4)CC3)ccnc2c1` (configuration not stated), the GI50 is 1.68 µM and the TGI was 8.1 µM. The like results for `C=CCn1c(SCC(=O)Nc2ccc(C(=O)/C=C/c3cc(OC)c(OC)c(OC)c3)cc2)nnc1-c1cc(OC)c(OC)c(OC)c1` were, in that order, 2.45 µM and 6.66 µM. On to `COCCn1c(Nc2ccc(C(=O)NO)cc2)nc2ccccc21`, for which the GI50 is 3.43 µM and the TGI stood at 16 µM. The like results for `CN1CCN(CCCOC(=O)c2c3c(n4ccccc24)C(=O)c2ncccc2C3=O)CC1` were, in that order, 1.88 µM and 20.6 µM. The like results for `CN1CCN(c2ccc3nc(-c4[nH]ncc4Nc4ncnc5[nH]ccc45)[nH]c3c2)CC1` were, in that order, 0.197 µM and 0.487 µM. On to `Cc1ccc(NC(=O)c2ccoc2)cc1-c1ccc(C(=O)NCC2CC2)cc1`, for which the GI50 is 6.37 µM and the TGI was above 25 µM. The like results for `CN1CCN(c2cc(F)c(NC3=C(Cl)C(=O)c4ncccc4C3=O)c(F)c2)CC1` were, in that order, 1.01 µM and 2.61 µM. The like results for `CCN(Cc1ccccc1)c1ccc(/C=C2\COc3ccccc3C2=O)cc1` were, in that order, 438 µM and above 1000 µM. The like results for `CCn1c(-c2nonc2N)nc2cnc(Oc3cccc(NC(=O)c4ccc(OCCN5CCOCC5)cc4)c3)cc21` were, in that order, 1.13 µM and 19.9 µM.

Consider `Cc1ccc(NC(=O)N[C@@H](Cc2cc(F)cc(F)c2)C(=O)NC2C(=O)N3CCC[C@H]3C(=O)N3CCCC[C@H]3C(=O)N[C@@H](C)C(=O)N3C[C@H](C)C[C@H]3C(=O)O[C@H]2C)c(F)c1` (stereo partly drawn) ({X1-CO}-[Phe(3,5-F2)][ξThr(3S)]P[Pip]A[Pro(4R-Me)]; ester 2-C), for which the GI50 is 0.174 µM and 0.0874 µM. With `COc1ccc(-c2nn3ncccc3c2-c2ccnc(Nc3ccc(F)c(F)c3)n2)cc1`, the GI50 is 6 µM and the TGI is above 18.9 µM. For `CN1CCC2(CC1)C(=O)Nc1cc(NC(=O)c3ccc4c(c3)C[C@@H]3C(C)(C)[C@H](O)[C@H](F)C[C@@]3(C)O4)ccc12`, the GI50 was 0.74 µM and the TGI is 11.7 µM.

The values are drawn from PubChem BioAssay (NCI).
